Biological target: T1, Human 11β HSD1 (Homo sapiens, UniProt P28845)
T1 construct: human hepatic microsomes were obtained from XenoTech, product H0610/Lot 0210078; tissue XenoTech H0610/Lot 0210078; host or cells: human liver (hepatic microsomes)
Test: biochemical
Type: biochemical
Settings: Lineweaver-Burke plot, RIA detection, buffer 3, 10 μg/well microsomal protein, 30 min (FIG. 20); read-out: apparent Km
Procedure: Standard Operating Procedure for the 11β-Hydroxysteroid Dehydrogenase Type 1 cortisol Radioimmunoassay (11β HSD1 Cortisol RIA).
30 mM Tris-HCL, pH 7.2 containing 1 mM EDTA.
50 mM Tris-HCL, pH 8, containing 0.1 M NaCl and 0.1% gelatin.
Prepare 10 mM stock solutions in 100% DMSO at 100 times the required assay concentration. Dilute into assay buffer 1 in 25. Also dilute neat DMSO 1 in 25 into assay buffer for controls.
Dilute this 1 in 50 into assay buffer.
Prepare NADPH as a 1.8 mg/ml solution in assay buffer.
Mix these 3solutions 1:1:1 to make a solution of sufficient volume for 25 μl additions to each sample. Add 0.5 μCi tritiated cortisone per 25 μl and mix the solution well.
Dilute stock 20 mg/ml solution 1 in 100 with assay buffer.
Dilute stock antibody solution to 17 μg/ml in antibody binding buffer.
Make a 20 mg/ml solution in antibody binding buffer and chill on ice.
To a u-bottom polypropylene 96 well plate add: • 25 μl compound dilution or diluted DMSO to controls, NSB's and blanks • 10 μl 1 mM GA in DMSO (enzyme stop solution) to blanks • 25 μl substrate mixture to all samples • 50 μl diluted microsomes to all samples • Incubate plate for 30 min at 37° C. shaking p0 Add 10 μl enzyme stop solution to all wells except the blanks • Add 100 μl antibody solution to all wells except the NSB's, add antibody binding buffer to these wells • Incubate at 37° C. for 1 h • Chill plate on ice for 15 min • Add 50 μl/well charcoal solution and mix with an 8-channel pipette (4-5 aspirations) • Chill the plate on ice • Centrifuge at 4° C., 2000×g for 15 min • Transfer 100 μl supernatant into an Optiplate, also add 25 μl substrate mixture to 2 empty wells to indicate counting efficiency • Add 200 μl Microscint-40 to all wells and count on a Topcount Radioimmunoassay
The 11β HSD1 enzyme assay was carried out following the standard operating procedure described above in u-bottom polypropylene 96 well plates or 1.5 ml Eppendorf tubes as indicated for each experiment. Subsequent to stopping the enzyme reaction, 100 μl antibody prepared in buffer 3 unless otherwise indicated was added to test samples and 100 μl buffer 3 was added to the NSB samples. The samples were incubated for 1 hour at 37° C. and the chilled on ice for 15 mins. Dextran coated charcoal (50 μl/sample) prepared to the indicated concentration in buffer 3 was added and the samples were mixed (vortex for tubes and aspiration 5 times with an 8-channel pipette for 96 well plates) and chilled for a further 10 min. The samples were centrifuged at 2000×g for 15 min at 4° C. to pellet the charcoal. Aliquots of the supernatant (100 μl) were transferred to an Optiplate and counted on the Topcount in 150-200 μl Microscint 40. In some experiments, aliquots of supernatant were transferred to scintillation vials and counted on the Tricarb LSC in 5 ml Ultima Gold scintillant.

T1 sequence (P28845 whole entry): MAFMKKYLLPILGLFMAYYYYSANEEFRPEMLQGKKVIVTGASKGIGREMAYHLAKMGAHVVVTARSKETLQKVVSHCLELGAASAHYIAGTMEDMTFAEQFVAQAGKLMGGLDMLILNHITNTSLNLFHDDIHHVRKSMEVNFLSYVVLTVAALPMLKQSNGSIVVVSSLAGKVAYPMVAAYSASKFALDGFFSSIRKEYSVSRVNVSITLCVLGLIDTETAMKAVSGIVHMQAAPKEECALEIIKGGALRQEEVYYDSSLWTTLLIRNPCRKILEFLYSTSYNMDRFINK

`C[C@]12CCC(=O)C=C1CC[C@@H]1[C@@H]2C(=O)C[C@@]2(C)[C@H]1CC[C@]2(O)C(=O)CO` [cortisone, Cortisone] gave a Km of 0.7 µM.

System: not given
Test: not given
Settings: not given

First: CC1Nc2ccc(NC(=O)c3ccc(-c4ccccc4)cc3)cc2N1C (stereo not shown)
Second: O=C(Nc1ccc2c(c1)CCC2=O)c1ccc(-c2ccccc2)cc1
The melting point of the first is higher: 270 to 270.3 °C for the first, 217 to 219 °C for the second.

First: Cc1nc2cc(NC(=O)c3ccc(Cl)cc3Cl)ccc2n1C
Second: Cc1nc2cc(NC(=O)c3cc(Cl)cc(Cl)c3)ccc2s1
The melting point of the first is higher: 275 to 277 °C for the first, 194 °C for the second.

First: Cc1nc2c(Cl)c(NC(=O)c3cc(Cl)cc(Cl)c3)ccc2s1
Second: Cc1nc2c(Cl)c(NC(=O)c3cc(Cl)ccc3Cl)ccc2s1
The melting point of the first is higher: 252 to 253 °C for the first, 175 °C for the second.

First: COc1cccc(C(=O)Nc2ccc3sc(C)nc3c2Cl)c1
Second: COc1cccc(CC(=O)Nc2ccc3sc(C)nc3c2Cl)c1
The melting point of the first is higher: 177 to 179 °C for the first, 147 to 148 °C for the second.

First: Cc1nc2c(Cl)c(NC(=O)Cc3ccc(Cl)cc3)ccc2s1
Second: CCCc1ccc(C(=O)Nc2ccc3c(c2)CCC3=O)cc1
The melting point of the first is higher: 227 to 229 °C for the first, 181 to 184 °C for the second.

Compared with `O=C(NCCc1cccs1)c1ccc(-c2ccccc2)cc1`, `O=C(NCCc1cccs1)c1cc(Cl)cc(Cl)c1` is lower in melting point: 164 to 166 °C for the first, 100 to 102 °C for the second.

Compared with `COc1cccc(C(=O)Nc2ccc3c(c2)CCC3=O)c1`, `CCCc1ccc(C(=O)Nc2ccc3c(c2)CCCC3=O)cc1` is lower in melting point: 203 to 204 °C for the first, 168 to 170 °C for the second.

First: O=C(c1ccccc1)c1ccc(NC(=O)c2cc(Cl)ccc2Cl)cc1
Second: COc1ccc(C(=O)Nc2ccc(C(=O)c3ccccc3)cc2)cc1
The melting point of the first is lower: 150 to 153 °C for the first, 171 to 174 °C for the second.

Work on `CCCc1ccc(S(=O)(=O)NCc2ccccn2)cc1` yielded a melting point of 109 °C.

Biological target: T2, human hepatic microsomal 11β HSD1 (Homo sapiens, UniProt P28845)
T2 construct: human hepatic microsomes were obtained from XenoTech, product H0610/Lot 0210078; tissue XenoTech H0610/Lot 0210078; host or cells: human liver (hepatic microsomes)
Test: not given
Type: biochemical
Settings: Lineweaver-Burke plot, 10 μg microsomal protein, 30 min at 37° C., Buffer 1 (FIG. 6); read-out: apparent Km for cortisone

T2 sequence (P28845 whole entry): as above

For `C[C@]12CCC(=O)C=C1CC[C@@H]1[C@@H]2C(=O)C[C@@]2(C)[C@H]1CC[C@]2(O)C(=O)CO` [cortisone, Cortisone], the Km was 0.66 µM.
